The test system of one data set is Zucker fa/fa obese rats. The data set can be described thus: Long-term treatment (12 months) of Zucker fa/fa obese rats with established obesity; protection of renal function. It counts as in vivo. The following applies: for mortality: after 12 months, untreated obese rats 64%. The method, then:
The Zucker obese rat strain fa/fa is characterized by hyperphagia, obesity, dyslipidemia aid type 2 diabetes resulting in the gradual development of a nephropathy.
A group of Zucker fa/fa obese rats that were not treated, but received the same amount of food as the group treated with 10 mg/kg/day per os, was also formed (pair-fed group).

The next data set concerns obese patients. The following applies: clinical studies, cited from earlier work.
[1] abbreviates: Zucker fa/fa obese rats, 3 and 10 mg/kg/day per os for 12 months, vs vehicle.
Setting [2] is: after 12 months of treatment, 3 and 10 mg/kg/day.

The term mortality denotes the share of the test organisms that died. Read a high mortality as fewer survivors. `Cc1c(C(=O)NN2CCCCC2)nn(-c2ccc(Cl)cc2Cl)c1-c1ccc(Cl)cc1` [rimonabant, N-piperidino-5-(4-chlorophenyl)-1-(2,4-dichlorophenyl)-4-methylpyrazole-3-carboxamide] returned a mortality in the data set on Zucker fa/fa obese rats (3 mg/kg/day per os, p<0.05) of 28%. Also, the mortality in the data set with Zucker fa/fa obese rats (10 mg/kg/day per os, p<0.01) is 20%. Besides, the “survival of the Zucker fa/fa obese rats” value in the data set on Zucker fa/fa obese rats (3 and 10 mg/kg/day per os) is recorded as “very significantly prolongs”. Further, in the data set on Zucker fa/fa obese rats (setting [1]), the creatinine clearance result was “partially restored”, the “increase in plasma creatinine level” value is on record as “decreased in a dose-dependent manner” and the “increase in plasma urea level” value was “decreased in a dose-dependent manner”. Further, the renal hypertrophy result in the data set with Zucker fa/fa obese rats (Zucker fa/fa obese rats, 12 months treatment, vs vehicle) is listed as “significantly reduced”. In addition, in the data set with Zucker fa/fa obese rats (setting [2]), the contractility result is listed as “remain unchanged”, the heart rate result is on record as “remain unchanged”, the left ventricular pressure result was “remain unchanged” and the mean arterial pressure entry is recorded as “remain unchanged”. For the same molecule, the protienuria entry with Zucker fa/fa obese rats (chronic treatment, 3 and 10 mg/kg/day per os) is given as “significantly delays”. Also, in the data set with obese patients (obese patients), the “body weight of obese patients” value was “reduces”. In the data set on obese patients, the food intake result was “acts on food intake in quantitative and qualitative terms”.

(Values after patent US7622488B2, “Use of a pyrazole derivative for preparing medicines useful for treating renal diseases” (sanofi-aventis, priority 2005, dated 2009).)
